Measured values: US6384007B1, “Method and composition for enhancing the activity of an enzyme” (Unilever Home & Personal USA division of Conopco, Inc., priority 1999, dated 2002)

Tests used:
[1] = Bleaching of tomato stains on cotton swatches (Example 2); conditions: enhancer 250 μM + enzyme 20 mg/l; detergent formulation pH 9; 30 minutes at 30 C
Procedure: Stain bleach experiments were performed as in Example 1, except that 20 mg/l enzymes was used. The detergent formulation was set at pH 9, and the swatches washed during 30 minutes at 30 C.
Table 2: Stain bleach performance of the phenol oxidizing enzyme/enhancer system on tomato stains in the presence of the enzymatic bleach system.

[2] = Bleaching of tomato stains on cotton swatches (Example 1); conditions: detergent wash solution 2 g/l, 1 hour at 30° C
Procedure: The potential of the enhancer, Ethanedioic acid, 2-[(4-aminophenyl)sulfonyl)hydrazide-2-phenylhydrazide, to boost the bleach performance of phenol oxidizing enzyme was assessed by washing cotton swatches soiled with tomato stains
Purified phenol oxidizing enzyme from Acremonium murorum was added to the wash solution at 100 mg/l. The enzyme from Acremonium murorum is described in WO-A-00/05349 (Unilever). The enhancer was dosed at 250 μM. The following formulation was used as wash solution (2 g/l): […]
The swatches were washed during 1 hour at 30° C. After the wash, the swatches were tumble-dried and the reflectance spectra were measured using a Minolta spectrometer. The color differences between the swatch before and after the wash data were expressed in the CIELAB L*a*b* color space. In this color space, L* indicates lightness and a* and b* are the chromaticity coordinates. Color differences between two swatches are expressed as ΔE, which is calculated from the following equation:
ΔE={square root over (ΔL^2+Δa^2+Δb^2+L )}
Table 1: Stain bleach performance of the phenol oxidizing enzyme/enhancer system on tomato stains in the presence of different enhancers.

ΔE (CIELAB colour difference of swatch before and after wash), wash with enzyme and enhancer added [1]: ΔE = 10.6 | ΔE (CIELAB colour difference of swatch before and after wash), wash with enzyme and enhancer added ([2]; enhancer 250 μM + phenol oxidizing enzyme from Acremonium murorum 100 mg/l): ΔE = 11.9
Structure (SMILES): Nc1ccc(S(=O)(=O)NNC(=O)C(=O)NNc2ccccc2)cc1 [enhancer, Ethanedioic acid, 2-[(4-aminophenyl)sulfonyl)hydrazide-2-phenylhydrazide]
ΔE (CIELAB colour difference of swatch before and after wash), wash with enhancer only ([2]; enhancer 250 μM, no enzyme): ΔE = 9.1
